Experimental data as given in PubChem BioAssay AID248 (DTP/NCI, 2004).
Values joined by “and” are separate entries in the source; they are usually repeats but may differ in a detail not shown here. Equal values may be shown once. Toxic doses and inconclusive results are not listed. No stated cut-off is given here; in the data, active means T/C of 150% or more; inactive means T/C below 125%.

System: L1210 leukemia ip in BDF1 mice, survival T/C
Assay: NCI In Vivo Anticancer Drug Screen. Data for tumor model L1210 Leukemia (intraperitoneal) in B6D2F1 (BDF1) mice
Conditions: endpoint: mean survival time, higher = longer survival
Method in brief: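 Tumor was transplanted into mice, which were then dosed with test compound or vehicle alone. Survival was recorded for each group, and the treated figure was expressed relative to the control figure.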

[1] = dose: 100.0 mg/kg/injection, schedule: Q01DX009 (ip), vehicle: saline with Tween-80
[2] = dose: 100.0 mg/kg/injection, schedule: Q04DX002 (ip), vehicle: saline with Tween-80
[3] = dose: 100.0 mg/kg/injection, schedule: Q04DX003 (ip), vehicle: saline with Tween-80
[4] = dose: 200.0 mg/kg/injection, schedule: Q01DX009 (ip), vehicle: saline with Tween-80
[5] = dose: 200.0 mg/kg/injection, schedule: Q04DX002 (ip), vehicle: saline with Tween-80
[6] = dose: 200.0 mg/kg/injection, schedule: Q04DX003 (ip), vehicle: saline with Tween-80
[7] = dose: 400.0 mg/kg/injection, schedule: Q01DX009 (ip), vehicle: saline with Tween-80
[8] = dose: 400.0 mg/kg/injection, schedule: Q04DX002 (ip), vehicle: saline with Tween-80
[9] = dose: 400.0 mg/kg/injection, schedule: Q04DX003 (ip), vehicle: saline with Tween-80
[10] = dose: 100.0 mg/kg/injection, schedule: Q01DX001 (ip), vehicle: saline
[11] = dose: 100.0 mg/kg/injection, schedule: Q04DX002 (ip), vehicle: saline
[12] = dose: 200.0 mg/kg/injection, schedule: Q04DX002 (ip), vehicle: saline
[13] = dose: 100.0 mg/kg/injection, schedule: Q01DX009 (ip), vehicle: Klucel (hydroxypropylcellulose) (HPC)
[14] = dose: 100.0 mg/kg/injection, schedule: Q04DX002 (ip), vehicle: Klucel (hydroxypropylcellulose) (HPC)
[15] = dose: 200.0 mg/kg/injection, schedule: Q01DX009 (ip), vehicle: Klucel (hydroxypropylcellulose) (HPC)
[16] = dose: 200.0 mg/kg/injection, schedule: Q04DX002 (ip), vehicle: Klucel (hydroxypropylcellulose) (HPC)
[17] = dose: 100.0 mg/kg/injection, schedule: Q01DX001 (ip), vehicle: carboxymethylcellulose (CMC)
[18] = dose: 200.0 mg/kg/injection, schedule: Q01DX001 (ip), vehicle: carboxymethylcellulose (CMC)
[19] = dose: 400.0 mg/kg/injection, schedule: Q01DX009 (ip), vehicle: Klucel (hydroxypropylcellulose) (HPC)
[20] = dose: 400.0 mg/kg/injection, schedule: Q01DX001 (ip), vehicle: carboxymethylcellulose (CMC)
[21] = dose: 50.0 mg/kg/injection, schedule: Q01DX009 (ip), vehicle: saline with Tween-80
[22] = dose: 50.0 mg/kg/injection, schedule: Q01DX001 (ip), vehicle: saline
[23] = dose: 200.0 mg/kg/injection, schedule: Q01DX001 (ip), vehicle: saline

Measured: T/C

CCCCCCCCCCCC(=O)Nc1ccc(NC(C)=O)cc1
inactive: [1] 96 % of control and 104 % of control | [2] 93 % of control and 94 % of control | [3] 95 % of control | [4] 93 % of control and 96 % of control | [5] 111 % of control and 91 % of control | [6] 108 % of control | [7] 96 % of control | [8] 96 % of control and 102 % of control | [9] 95 % of control

CCCCCCCC(=O)N1C=CN(C(=O)CCCCCCC)C1
inactive: dose: 30.0 mg/kg/injection, schedule: Q01DX001 (ip), vehicle: saline 100 % of control | [10] 94 % of control | dose: 300.0 mg/kg/injection, schedule: Q01DX001 (ip), vehicle: saline 94 % of control

COc1ccc(CCN2C(=O)c3cccc4c(Br)ccc(c34)C2=O)cc1
inactive: [11] 93 % of control | [12] 93 % of control | dose: 400.0 mg/kg/injection, schedule: Q04DX002 (ip), vehicle: saline 97 % of control

Nc1ccccc1C(=O)N/N=C/c1ccc(Cl)cc1Cl
inactive: [13] 89 % of control | [14] 95 % of control | [15] 98 % of control | [16] 102 % of control | dose: 400.0 mg/kg/injection, schedule: Q04DX002 (ip), vehicle: Klucel (hydroxypropylcellulose) (HPC) 104 % of control

CCCCCCCCCCCCCCCCS(=O)(=O)N/N=C/c1ccccc1O
inactive: [17] 95 % of control | [18] 98 % of control

O=C(NNC(=O)c1ccc(Cl)cc1)Nc1ccc(F)c(Cl)c1
inactive: [13] 97 % of control | [15] 104 % of control | [19] 100 % of control

OC(c1ccccc1)C(c1ccccc1)C1CO1 (stereo unspecified)
inactive: dose: 12.5 mg/kg/injection, schedule: Q01DX009 (ip), vehicle: DMSO 88 % of control | dose: 25.0 mg/kg/injection, schedule: Q01DX009 (ip), vehicle: DMSO 91 % of control | dose: 100.0 mg/kg/injection, schedule: Q04DX003 (ip), vehicle: other 103 % of control | dose: 200.0 mg/kg/injection, schedule: Q04DX003 (ip), vehicle: other 103 % of control | dose: 400.0 mg/kg/injection, schedule: Q04DX003 (ip), vehicle: other 94 % of control

COc1ccc(N=Nc2cc(C)c(C)cc2O)cc1
inactive: [13] 96 % of control | [15] 103 % of control | [19] 94 % of control

CCOC(=O)CCC(NC(=O)c1ccc2c(c1)CCCN2C=O)C(=O)OCC (stereo unspecified)
inactive: dose: 100.0 mg/kg/injection, schedule: Q04DX003 (ip), vehicle: Klucel (hydroxypropylcellulose) (HPC) 104 % of control | dose: 200.0 mg/kg/injection, schedule: Q04DX003 (ip), vehicle: Klucel (hydroxypropylcellulose) (HPC) 103 % of control | dose: 400.0 mg/kg/injection, schedule: Q04DX003 (ip), vehicle: Klucel (hydroxypropylcellulose) (HPC) 103 % of control

CCOC(=O)C[n+]1cccc(Br)c1
inactive: [17] 91 % of control | [18] 104 % of control | [20] 104 % of control

O=C1NC(=O)C(Cc2ccc(Cl)cc2)C(=O)N1
inactive: [1] 103 % of control | [2] 93 % of control | [4] 98 % of control | [5] 101 % of control | [7] 98 % of control | [8] 101 % of control

O=C(Nc1ccc(-c2nc3nc[nH]c(=O)c3[nH]2)cc1)c1cccc(S(=O)(=O)F)c1
inactive: dose: 100.0 mg/kg/injection, schedule: Q01DX001 (ip), vehicle: saline with Tween-80 96 % of control | dose: 200.0 mg/kg/injection, schedule: Q01DX001 (ip), vehicle: saline with Tween-80 96 % of control | dose: 400.0 mg/kg/injection, schedule: Q01DX001 (ip), vehicle: saline with Tween-80 92 % of control

CC1(N)CCC(C(C)(C)N)CC1 (stereo unspecified)
inactive: dose: 25.0 mg/kg/injection, schedule: Q01DX009 (ip), vehicle: saline with Tween-80 103 % of control | [21] 97 % of control | [1] 92 % of control

CCC(C(=O)OC)C1CCN(C)C(=O)C12CO2 (stereo unspecified)
inactive: dose: 25.0 mg/kg/injection, schedule: Q01DX001 (ip), vehicle: saline 93 % of control | dose: 25.0 mg/kg/injection, schedule: Q04DX003 (ip), vehicle: saline 95 % of control | dose: 25.0 mg/kg/injection, schedule: Q04DX003 (oral), vehicle: saline 100 % of control | [22] 104 % of control | dose: 50.0 mg/kg/injection, schedule: Q04DX003 (ip), vehicle: saline 95 % of control | dose: 50.0 mg/kg/injection, schedule: Q04DX003 (oral), vehicle: saline 98 % of control | [10] 97 % of control | dose: 100.0 mg/kg/injection, schedule: Q04DX003 (ip), vehicle: saline 97 % of control | dose: 100.0 mg/kg/injection, schedule: Q04DX003 (oral), vehicle: saline 96 % of control | [23] 103 % of control | dose: 200.0 mg/kg/injection, schedule: Q04DX003 (ip), vehicle: saline 97 % of control | dose: 200.0 mg/kg/injection, schedule: Q04DX003 (oral), vehicle: saline 107 % of control

COc1ccc(NC(=S)NC(=O)COc2ccccc2)cc1
inactive: [1] 101 % of control and 107 % of control | [2] 107 % of control and 87 % of control | [4] 102 % of control | [5] 100 % of control and 90 % of control | [7] 89 % of control | [8] 106 % of control

O=C1C(=O)c2cccc3cccc1c23
inactive: dose: 100.0 mg/kg/injection, schedule: Q01DX001 (ip), vehicle: Klucel (hydroxypropylcellulose) (HPC) 88 % of control | [1] 90 % of control | dose: 200.0 mg/kg/injection, schedule: Q01DX001 (ip), vehicle: Klucel (hydroxypropylcellulose) (HPC) 93 % of control | [4] 89 % of control | dose: 400.0 mg/kg/injection, schedule: Q01DX001 (ip), vehicle: Klucel (hydroxypropylcellulose) (HPC) 97 % of control | [7] 89 % of control

C/C(=C\C(=N\NC(=N)N)c1ccccc1)c1ccccc1
inactive: dose: 1.87 mg/kg/injection, schedule: Q01DX Z (ip), vehicle: carboxymethylcellulose (CMC) 94 % of control | dose: 3.75 mg/kg/injection, schedule: Q01DX Z (ip), vehicle: carboxymethylcellulose (CMC) 97 % of control | dose: 7.5 mg/kg/injection, schedule: Q01DX Z (ip), vehicle: carboxymethylcellulose (CMC) 88 % of control | dose: 7.5 mg/kg/injection, schedule: Q01DX Z (oral), vehicle: carboxymethylcellulose (CMC) 108 % of control | dose: 15.0 mg/kg/injection, schedule: Q01DX Z (ip), vehicle: carboxymethylcellulose (CMC) 98 % of control | dose: 15.0 mg/kg/injection, schedule: Q01DX Z (oral), vehicle: carboxymethylcellulose (CMC) 106 % of control | dose: 30.0 mg/kg/injection, schedule: Q01DX Z (oral), vehicle: carboxymethylcellulose (CMC) 100 % of control | dose: 60.0 mg/kg/injection, schedule: Q01DX Z (oral), vehicle: carboxymethylcellulose (CMC) 108 % of control

CC1CCCCC1C(=O)N1CCCC1 (stereo unspecified)
inactive: [11] 101 % of control | [12] 105 % of control

O=C(O)CCCC1CC(=O)c2c(c(O)c3ccccc3c2O)C1=O (stereo unspecified)
inactive: [21] 101 % of control | [1] 103 % of control | [3] 101 % of control | [4] 101 % of control | [6] 95 % of control | [9] 95 % of control

c1ccc2c(c1)ccn1cnnc21
inactive: [22] 97 % of control | [10] 101 % of control | [23] 109 % of control

CC(C)(C)N=C(N)N[N+](=O)[O-]
inactive: dose: 50.0 mg/kg/injection, schedule: Q04DX002 (ip), vehicle: Klucel (hydroxypropylcellulose) (HPC) 104 % of control | [14] 100 % of control | [16] 104 % of control

S=P(N1CCCCC1)(N1CCCCC1)N1CCCCC1
inactive: [13] 100 % of control | [15] 103 % of control | [19] 100 % of control

COc1ccc(/C(C#N)=C2C=C/C(=N/O)c3ccccc3\2)cc1
inactive: dose: 50.0 mg/kg/injection, schedule: Q01DX001 (ip), vehicle: carboxymethylcellulose (CMC) 92 % of control | [17] 92 % of control | [18] 87 % of control | [20] 89 % of control

O=c1cc(O)ccn1CCc1cccs1
inactive: [1] 94 % of control | [3] 91 % of control | [4] 96 % of control | [6] 98 % of control | [9] 90 % of control

CCCCCCCCCCCCCCCc1cc(=O)n(C)n1C
inactive: [3] 93 % of control | [6] 94 % of control
